As usually defined, the EC50 is the concentration giving half of the maximal effect.

Common to all, as to test: Method 1: intracellular Ca2+ release (FLIPR, Calcium 5) in recombinant CHO-K1 cells
What all share (format): cell-based

The target of one assay is T1, human S1PR1 receptor (Homo sapiens, UniProt P21453).
T1 construct: host or cells: CHO-K1
The conditions noted are these: (1): determined with method 1; read-out: S1P1 EC50. In short, it runs like this: (§1)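 Read-out: FLIPR Tetra fluorescence of Calcium 5-loaded CHO-K1 cells (receptor + aequorin + Gq/i5) after agonist addition at RT. Values are EC50s from nonlinear fits normalized to the phospho-fingolimod reference curve. Buffer HBSS with Ca2+/Mg2+, Hepes, probenecid, 0.1% BSA, pH 7.4.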

For the next assay, the target named is T2, human S1PR3 receptor (Homo sapiens, UniProt Q99500).
T2 construct: host or cells: CHO-K1
The note with it: (1): determined with method 1; read-out: S1P3 EC50. The essentials: as §1

A further assay addresses T3, human S1PR4 receptor (Homo sapiens, UniProt O95977).
T3 construct: host or cells: CHO-K1
T3 sequence (O95977 1-384): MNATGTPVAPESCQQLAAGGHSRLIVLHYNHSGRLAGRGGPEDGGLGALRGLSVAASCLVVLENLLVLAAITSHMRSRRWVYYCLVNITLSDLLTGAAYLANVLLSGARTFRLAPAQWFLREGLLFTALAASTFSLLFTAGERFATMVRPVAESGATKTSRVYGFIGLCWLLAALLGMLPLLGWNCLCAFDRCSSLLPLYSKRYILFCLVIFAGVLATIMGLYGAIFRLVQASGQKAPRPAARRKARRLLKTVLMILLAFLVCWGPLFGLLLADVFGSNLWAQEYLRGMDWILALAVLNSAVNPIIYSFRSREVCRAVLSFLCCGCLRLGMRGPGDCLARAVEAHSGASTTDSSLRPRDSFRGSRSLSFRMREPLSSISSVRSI
The note with it: (1): determined with method 1; read-out: S1P4 EC50. In short, it runs like this:
as §1

For another assay, the target named is T4, human S1PR5 receptor (Homo sapiens, UniProt Q9H228).
T4 construct: host or cells: CHO-K1
The note with it: agonist potency, determined with method 1 (symbols A-D); read-out: S1P5 EC50 range. The essentials: as §1

Structures can show the parent of a compound that is named as a salt.

T2 sequence (Q99500 whole entry): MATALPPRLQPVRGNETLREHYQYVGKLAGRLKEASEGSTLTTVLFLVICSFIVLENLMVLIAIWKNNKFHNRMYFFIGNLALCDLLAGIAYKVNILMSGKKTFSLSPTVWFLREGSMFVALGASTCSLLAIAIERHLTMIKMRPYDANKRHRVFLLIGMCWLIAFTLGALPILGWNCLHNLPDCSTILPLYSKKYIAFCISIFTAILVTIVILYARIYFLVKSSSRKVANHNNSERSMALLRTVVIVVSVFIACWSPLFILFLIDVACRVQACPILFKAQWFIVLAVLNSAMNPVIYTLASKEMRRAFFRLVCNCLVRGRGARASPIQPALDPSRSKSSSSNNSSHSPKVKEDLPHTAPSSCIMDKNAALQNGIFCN
T1 sequence (P21453 whole entry): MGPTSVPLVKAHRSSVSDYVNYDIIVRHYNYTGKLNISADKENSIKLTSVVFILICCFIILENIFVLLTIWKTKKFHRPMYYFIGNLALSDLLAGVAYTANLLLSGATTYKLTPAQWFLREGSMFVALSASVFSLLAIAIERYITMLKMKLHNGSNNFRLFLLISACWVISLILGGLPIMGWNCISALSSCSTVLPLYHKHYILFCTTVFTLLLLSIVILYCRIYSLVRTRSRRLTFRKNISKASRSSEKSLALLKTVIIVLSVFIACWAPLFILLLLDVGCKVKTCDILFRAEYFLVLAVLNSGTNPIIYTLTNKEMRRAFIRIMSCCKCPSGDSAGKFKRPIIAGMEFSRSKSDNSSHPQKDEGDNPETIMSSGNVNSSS
T4 sequence (Q9H228 whole entry): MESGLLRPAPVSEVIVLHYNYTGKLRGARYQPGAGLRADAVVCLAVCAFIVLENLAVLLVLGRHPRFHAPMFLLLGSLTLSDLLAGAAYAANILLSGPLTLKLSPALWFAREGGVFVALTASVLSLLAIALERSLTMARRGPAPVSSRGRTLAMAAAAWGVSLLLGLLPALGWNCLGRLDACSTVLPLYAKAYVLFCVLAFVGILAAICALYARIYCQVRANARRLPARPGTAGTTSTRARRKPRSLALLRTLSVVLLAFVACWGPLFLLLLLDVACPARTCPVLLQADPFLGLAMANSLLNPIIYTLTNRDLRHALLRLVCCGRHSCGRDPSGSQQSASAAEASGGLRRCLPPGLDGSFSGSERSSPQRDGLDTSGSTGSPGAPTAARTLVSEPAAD

In the case of `CC(CCN1CCc2nc(-c3ccc(OCc4ccc(Cl)cc4)cc3)c(F)cc2C1)C(=O)O` (stereo not shown) [Compound 181], the EC50 at human S1PR1 receptor is < 1 µM; at human S1PR3 receptor, > 1 µM; at human S1PR4 receptor it was > 1 µM; on human S1PR5 receptor, < 0.01 µM.
For `CC(CC(=O)O)CN1CCc2nc(-c3ccc(OCc4ccccc4Cl)cc3)ncc2C1` (stereo not shown) [Compound 229, 4-[2-[4-[(2-chlorophenyl)methoxy]phenyl]-7,8-dihydro-5H-pyrido[4,3-d]pyrimidin-6-yl]-3-methyl-butanoic acid 2,2,2-trifluoroacetic acid salt], the EC50 was < 1 µM on human S1PR1 receptor, > 1 µM at human S1PR3 receptor, > 1 µM at human S1PR4 receptor and < 0.01 µM at human S1PR5 receptor.
Turning to `CCc1cccc(Cl)c1COc1ccc(-c2ncc3c(n2)CCN(CC(=O)O)C3)cc1` [Compound 35, 2-(2-(4-((2-chloro-6-ethylbenzyl)oxy)phenyl)-7,8-dihydropyrido[4,3-d]pyrimidin-6(5H)-yl)acetic acid], the EC50 at human S1PR1 receptor was < 1 µM; at human S1PR3 receptor, < 1 µM; on human S1PR4 receptor, < 1 µM; at human S1PR5 receptor, 0.1 to 1 µM.
`CC(CCC(=O)O)N1CCc2nc(-c3ccc(OCc4ccc(Cl)cc4)cc3)ncc2C1` (stereo not shown) [Compound 66, 4-(2-(4-((4-chlorobenzyl)oxy)phenyl)-7,8-dihydropyrido[4,3-d]pyrimidin-6(5H)-yl)pentanoic acid]: the EC50 at human S1PR1 receptor was > 1 µM; at human S1PR3 receptor, > 1 µM; at human S1PR4 receptor it was > 1 µM; at human S1PR5 receptor, < 0.01 µM.
With `O=C(O)C1CC(N2CCc3nc(C#Cc4ccc(Cl)cc4)ncc3C2)C1` (stereo not shown) [Compound 54, 3-(2-((4-chlorophenyl)ethynyl)-7,8-dihydropyrido[4,3-d]pyrimidin-6(5H)-yl)cyclobutanecarboxylic acid], the EC50 on human S1PR1 receptor was > 1 µM; on human S1PR3 receptor, > 1 µM; at human S1PR4 receptor, > 1 µM; on human S1PR5 receptor it was 1 to 10 µM.
Turning to `O=C(O)CCN1CCc2cc(-c3ccc(OCc4cccc(F)c4)cc3)ncc2C1` [Compound 176, 3-(6-(4-((3-fluorobenzyl)oxy)phenyl)-3,4-dihydro-2,7-naphthyridin-2(1H)-yl)propanoic acid], the EC50 was > 1 µM on human S1PR1 receptor, > 1 µM at human S1PR3 receptor, > 1 µM at human S1PR4 receptor and < 0.01 µM on human S1PR5 receptor.
`CC(CC(=O)O)CN1CCc2nc(-c3ccc(CCc4ccc(Cl)cc4F)cc3)ncc2C1` (stereo not shown) [Compound 250, 4-(2-(4-(4-chloro-2-fluorophenethyl)phenyl)-7,8-dihydropyrido[4,3-d]pyrimidin-6(5H)-yl)-3-methylbutanoic acid]: the EC50 was > 1 µM on human S1PR1 receptor, > 1 µM at human S1PR3 receptor, > 1 µM at human S1PR4 receptor and < 0.01 µM at human S1PR5 receptor.
For the compound `O=C(O)CCN1CCc2nc(-c3ccc(OCc4ccccc4OC(F)F)cc3)ccc2C1` [Compound 163, 3-(2-(4-((2-difluoromethoxybenzyl)oxy)phenyl)-7,8-dihydro-1,6-naphthyridin-6(5H)-yl)propanoic acid], the EC50 at human S1PR1 receptor is > 1 µM; at human S1PR3 receptor, > 1 µM; at human S1PR4 receptor it was > 1 µM; at human S1PR5 receptor, < 0.01 µM.
With `Cc1c(COc2ccc(-c3ncc4c(n3)CCN(CC(C)CC(=O)O)C4)c(F)c2)cccc1C(F)(F)F` (stereo not shown) [Compound 241, 4-[2-[2-fluoro-4-[[2-methyl-3-(trifluoromethyl)phenyl]methoxy]phenyl]-7,8-dihydro-5H-pyrido[4,3-d]pyrimidin-6-yl]-3-methyl-butanoic acid 2,2,2-trifluoroacetic acid salt], the EC50 on human S1PR1 receptor is > 1 µM; on human S1PR3 receptor, > 1 µM; on human S1PR4 receptor, > 1 µM; on human S1PR5 receptor it was < 0.01 µM.
In the case of `CC(CC(=O)O)CN1CCc2nc(-c3ccc(C(F)Cc4ccc(Cl)cc4F)cc3)ncc2C1` (stereo not shown) [Compound 253], the EC50 was > 1 µM at human S1PR1 receptor, > 1 µM at human S1PR3 receptor, > 1 µM at human S1PR4 receptor and < 0.01 µM on human S1PR5 receptor.
